Data: patent publication US11046691B1 (IDEAYA BIOSCIENCES, INC., priority 2018, dated 2021)

target: hMAT2A (Homo sapiens (Human), UniProt P31153); experiment: Phosphate Sensor Fluorescence Assay (MAT2A enzyme inhibition); format: biochemical; conditions: L-methionine 500 uM, ATP 500 uM, class symbols
How it was run: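 Recombinant MAT2A preincubated 15 min at room temperature with compound, then reacted 1 h at room temperature with 500 uM L-methionine and 500 uM ATP in Tris pH 7.5 buffer containing PNP/7-MEG.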

hMAT2A, sequence (P31153 whole entry): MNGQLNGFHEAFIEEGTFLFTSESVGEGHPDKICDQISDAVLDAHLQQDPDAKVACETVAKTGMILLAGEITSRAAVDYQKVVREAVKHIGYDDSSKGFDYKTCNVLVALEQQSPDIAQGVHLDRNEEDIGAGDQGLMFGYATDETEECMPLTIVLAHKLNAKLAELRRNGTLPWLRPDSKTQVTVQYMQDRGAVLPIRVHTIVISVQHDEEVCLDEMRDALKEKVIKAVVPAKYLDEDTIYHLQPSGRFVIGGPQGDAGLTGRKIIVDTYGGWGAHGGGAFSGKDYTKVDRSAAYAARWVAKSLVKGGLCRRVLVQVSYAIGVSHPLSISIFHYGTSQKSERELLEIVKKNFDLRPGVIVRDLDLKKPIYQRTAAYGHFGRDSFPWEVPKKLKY

IC50 [nM] | Compound
< 200 | CCc1cc(C2CC2)cc2c1c(NC)nc(=O)n2-c1ccccc1C [Example 410, 7-cyclopropyl-5-ethyl-4-(methylamino)-1-(2-methylphenyl)hydroquinazolin-2-one]
< 200 | COc1ccccc1-n1c(=O)nc(N2CC[C@@H](O)C2)c2ccc(Cl)cc21 [Example 151, 4-((3R)-3-hydroxypyrrolidin-1-yl)-7-chloro-1-(2-methoxyphenyl)hydro-quinazolin-2-one]
< 200 | O=c1[nH]c(=O)n(-c2cccnc2)c2cc(C(F)(F)F)ccc12 [Example 362, 1-(pyridin-3-yl)-7-(trifluoromethyl)-1,3-dihydroquinazoline-2,4-dione]
< 200 | CNc1nc(=O)n(-c2ncccc2C)c2nc(C(F)(F)F)ccc12 [Example 260, 1-(3-methyl(2-pyridyl))-4-(methyl-amino)-7-(trifluoromethyl)pyrido[2,3-d]-pyrimidin-2(1H)-one]
< 200 | N#Cc1cccc(-n2c(=O)nc(N3CC(O)C3)c3ccc(C(F)(F)F)cc32)c1 [Example 139, 3-[4-(3-hydroxyazetidinyl)-2-oxo-7-(trifluoromethyl)hydroquinazolinyl]-benzenecarbonitrile]
< 200 | Cn1ccc(CNc2nc(=O)n(-c3ccccc3Cl)c3nc(C(F)(F)F)ccc23)n1 [Example 257, 1-(2-chlorophenyl)-4-{[(1-methyl-pyrazol-3-yl)methyl]amino}-7-(trifluoro-methyl)-pyrido[2,3-d]pyrimidin-2(1H)-one]
< 200 | Nc1nc(=O)n(-c2cccnc2)c2cc(C(F)(F)F)ccc12 [Example 327, 4-amino-1-(pyridin-3-yl)-7-(trifluoro-methyl)hydroquinazolin-2-one]
< 200 | O=c1nc(NCC(F)(F)F)c2ccc(C(F)(F)F)cc2n1-c1ccccc1Cl [Example 101, 1-(2-chlorophenyl)-4-[(2,2,2-trifluoro-ethyl)amino]-7-(trifluoromethyl)hydro-quinazolin-2-one]
< 200 | O=c1nc(N2CC(O)C2)c2ccc(C(F)(F)F)nc2n1-c1ccccc1 [Example 171, 4-(3-hydroxyazetidin-1-yl)-1-phenyl-7-(trifluoromethyl)pyrido[2,3-d]pyrimidin-2(1H)-one]
< 200 | O=c1nc(NC2(CO)CC2)c2ccc(C(F)(F)F)nc2n1-c1ccccc1Cl [Example 322, 1-(2-chlorophenyl)-4-{[(hydroxy-methyl)cyclopropyl]amino}-7-(trifluoro-methyl)-pyrido[2,3-d]pyrimidin-2(1H)-one]
< 200 | O=c1nc(NC2CCC2)c2ccc(C(F)(F)F)nc2n1-c1ccccc1Cl [Example 320, 1-(2-chlorophenyl)-4-(cyclobutylamino)-7-(trifluoromethyl)pyrido[2,3-d]-pyrimidin-2(1H)-one]
200 to 500 | CNc1nc(=O)n(-c2cccc(Br)c2)c2cc(Cl)ccc12 [Example 401, 1-(3-bromophenyl)-7-chloro-4-(methylamino)hydroquinazolin-2-one]
200 to 500 | C[C@@]1(O)CCN(c2nc(=O)n(-c3ccccc3)c3cc(Cl)ccc23)C1 [Example 217, 4-((3R)-3-hydroxy-3-methylpyrrolidin-1-yl)-7-chloro-1-phenylhydroquinazolin-2-one]
< 200 | CN(Cc1ccncc1)c1nc(=O)n(-c2ccccc2)c2cc(Cl)ccc12 [Example 234, 7-chloro-4-[methyl(pyridin-4-ylmethyl)-amino]-1-phenylhydroquinazolin-2-one]
< 200 | CNc1nc(=O)n(-c2cnccc2C)c2nc(C(F)(F)F)ccc12 [Example 376]
500 to 1000 | CNc1nc(=O)n(-c2ccncc2)c2nc(C(F)(F)F)ccc12 [Example 313]
< 200 | C[C@@H](O)CNc1nc(=O)n(-c2ccccc2Cl)c2nc(C(F)(F)F)ccc12 [Example 294, 4-[((2R)-2-hydroxypropyl)amino]-1-(2-chlorophenyl)-7-(trifluoromethyl)-pyrido[2,3-d]pyrimidin-2(1H)-one]
< 200 | Cc1ccccc1-n1c(=O)[nH]c(=O)c2ccc(C(F)(F)F)cc21 [Example 147, 1-(2-methylphenyl)-7-(trifluoromethyl)-1,3-dihydroquinazoline-2,4-dione]
< 200 | O=c1nc(N2CCC2CO)c2ccc(Cl)cc2n1-c1ccccc1 (stereo not shown) [Example 186, 7-chloro-4-[2-(hydroxymethyl)azetidin-1-yl]-1-phenylhydroquinazolin-2-one]

IC50 [nM] | Compound
< 200 | O=c1nc(NCC(F)F)c2ccc(C(F)(F)F)nc2n1-c1ccccc1 [Example 137, 4-((2,2-difluoroethyl)amino)-1-phenyl-7-(trifluoromethyl)pyrido[2,3-d]pyrimidin-2(1H)-one]
< 200 | CNc1nc(=O)n(-c2ccccc2Cl)c2cc(C3CC3)c(Br)cc12 [Example 417, 6-bromo-1-(2-chlorophenyl)-7-cyclo-propyl-4-(methylamino)hydro-quinazolin-2-one]
< 200 | CNc1nc(=O)n(-c2cccnc2C)c2nc(C(F)(F)F)ccc12 [Example 380, 4-(methylamino)-1-(2-methylpyridin-3-yl)-7-(trifluoromethyl)pyrido[2,3-d]-pyrimidin-2(1H)-one]
< 200 | O=c1[nH]c(=O)n(-c2cnccc2Cl)c2nc(C(F)(F)F)ccc12 [Example 358, 1-(4-chloropyridin-3-yl)-7-(trifluoro-methyl)pyrido[2,3-d]pyrimidine-2,4(1H,3H)-dione]
< 200 | O=c1[nH]c(=O)n(-c2cccc3ncsc23)c2nc(C(F)(F)F)ccc12 [Example 363, 1-benzothiazol-7-yl-7-(trifluoromethyl)-pyrido[2,3-d]pyrimidine-2,4(1H,3H)-dione]
< 200 | CCCc1ccc2c(NC)nc(=O)n(-c3ccccc3)c2c1 [Example 97, 4-(methylamino)-1-phenyl-7-propylhydroquinazolin-2-one]
< 200 | CNc1nc(=O)n(-c2ccncc2Cl)c2nc(C(F)(F)F)ccc12 [Example 312]
< 200 | CC1(Nc2nc(=O)n(-c3ccccc3Cl)c3nc(C(F)(F)F)ccc23)CCC1 [Example 319]
< 200 | N#CC1(Nc2nc(=O)n(-c3ccccc3Cl)c3nc(C(F)(F)F)ccc23)CCC1 [Example 277, 1-((1-(2-chlorophenyl)-2-oxo-7-(trifluoromethyl)-1,2-dihydropyrido[2,3-d]pyrimidin-4-yl)amino)cyclobutane-1-carbonitrile]
1000 to 10000 | CN(C)CCNc1nc(=O)n(-c2ccccc2Cl)c2nc(C(F)(F)F)ccc12 [Example 267, 4-{[2-(dimethylamino)ethyl]amino}-1-(2-chlorophenyl)-7-(trifluoromethyl)-pyrido[2,3-d]pyrimidin-2(1H)-one]
< 200 | O=c1nc(N2CC[C@@H](O)C2)c2ccc(Cl)cc2n1-c1ccc2[nH]ncc2c1 [Example 279, (R)-7-chloro-4-(3-hydroxypyrrolidin-1-yl)-1-(1H-indazol-5-yl)quinazolin-2(1H)-one]
200 to 500 | O=c1nc(N2CC[C@@H]2CO)c2ccc(Cl)cc2n1-c1ccccc1 [Example 187, (R)-7-chloro-4-(2-(hydroxymethyl)-azetidin-1-yl)-1-phenylquinazolin-2(1H)-one]
< 200 | CS(=O)(=O)CCNc1nc(=O)n(-c2ccccc2Cl)c2nc(C(F)(F)F)ccc12 [Example 264, 1-(2-chlorophenyl)-4-{[2-(methyl-sulfonyl)ethyl]amino}-7-(trifluoro-methyl)pyrido [2,3-d]pyrimidin-2 (1H)-one]
500 to 1000 | N#Cc1cc2c(NCC3CCO3)nc(=O)n(-c3ccccc3Cl)c2cc1C1CC1 (stereo not shown) [Example 408, 1-(2-chlorophenyl)-7-cyclopropyl-4-((oxetan-2-ylmethyl)amino)-2-oxo-1,2-dihydroquinazoline-6-carbonitrile]
200 to 500 | CNc1nc(=O)n(-c2ncccn2)c2cc(C(F)(F)F)ccc12 [Example 123, 4-(methylamino)-1-pyrimidin-2-yl-7-(trifluoromethyl)hydroquinazolin-2-one]
1000 to 10000 | NC(=O)[C@@H]1CCCN1c1nc(=O)n(-c2ccccc2)c2cc(Cl)ccc12 [Example 240, (2S)-1-(7-chloro-2-oxo-1-phenylhydro-quinazolin-4-yl)pyrrolidine-2-carboxamide]
200 to 500 | O=c1nc(NCC(F)(F)F)c2ccc(C(F)(F)F)cc2n1-c1ncccn1 [Example 121]
1000 to 10000 | CNc1nc(=O)n(-c2ccccc2)c2cc(Cl)c(C#N)cc12 [Example 190, 7-chloro-4-(methylamino)-2-oxo-1-phenylhydroquinazoline-6-carbonitrile]
< 200 | CN(Cc1cccnc1)c1nc(=O)n(-c2ccccc2)c2cc(Cl)ccc12 [Example 235, 7-chloro-4-[methyl(pyridin-3-ylmethyl)-amino]-1-phenylhydroquinazolin-2-one]

same assay, conditions: L-methionine 500 uM, ATP 500 uM, numeric bound

IC50 [nM] | Compound
> 10000 | CNc1nc(=O)n(-c2ccccc2)c2c(Cl)c(C(F)(F)F)ccc12 [Example 343, 8-chloro-4-(methylamino)-1-phenyl-7-(trifluoromethyl)hydroquinazolin-2-one]
> 10000 | O=c1nc(NCC(F)F)c2ccc(Cl)cc2n1-c1ccc2nccn2c1 [Example 249, 4-[(2,2-difluoroethyl)amino]-7-chloro-1-(4-hydroimidazo[1,2-a]pyridin-6-yl)-hydroquinazolin-2-one]
> 10000 | CNc1nc(=O)n(-c2ccccc2)c2cc(Cl)cc(OC3CN(C(=O)OC(C)(C)C)C3)c12 [Example 132, tert-butyl 3-[7-chloro-4-(methylamino)-2-oxo-1-phenylhydroquinazolin-5-yl-oxy]azetidinecarboxylate]
> 10000 | O=c1[nH]c(=O)n(-c2cccc(C(F)F)c2)c2cc(Cl)ccc12 [Example 354, 7-chloro-1-(3-difluoromethylphenyl)-quinazoline-2,4(1H,3H)-dione]
> 10000 | COc1ccc(F)c(-n2c(=O)[nH]c(=O)c3ccc(Cl)cc32)c1 [Example 311, 7-chloro-1-(2-fluoro-5-methoxyphenyl)-quinazoline-2,4(1H,3H)-dione]
